Experimental data as given in ChEMBL document CHEMBL1201862, “PubChem BioAssay data set” (2004).
Active and inactive are the calls of the source.

Columns and labels:
Danio rerio = assay: In Vivo Angiogenesis Dose-Response Confirmation. [Related pubchem assays: 732 (Assay preceding this confirmatory assay.)]; type: functional, organism-based
NADPH oxidase 1 = NADPH oxidase 1 (Homo sapiens, UniProt Q9Y5S8); assay: Late-stage luminescence-based cell-based dose response assay to identify inhibitors of NADPH oxidase 1 (NOX1): Synthesized analogs.; type: functional
[1] = biological target: Serine/threonine-protein phosphatase (Homo sapiens, UniProt Q9BPW0); assay: inhibition of protein phosphatase 5 activity – biochemical, fluorescence, dose response (AID 2395)
[2] = biological target: Serine/threonine-protein phosphatase PP1-alpha catalytic subunit (Homo sapiens, UniProt P62136); assay: inhibition of protein phosphatase 1 activity – biochemical, fluorescence, dose response (AID 2394)
[3] = viability of PTEN-deleted HCT116 cells – cell-based, HCT116 PTEN knockout, dose response (AID 1047); type: functional;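 also: HCT116 colon tumor cells with PTEN knocked out; cells exposed to compound for 60 hours before readout; potency for loss of cell viability measured by luminescence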
[4] = biological target: T1, Heat shock factor protein 1 (Mus musculus, UniProt P38532); assay: enhancement of HSF1-driven luciferase signal – cell-based, NIH3T3, luminescence, dose retest, confirmation (AID 435004); type: functional;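 also: stress induced by proteasome inhibitor MG132 added 30 min after compound; luciferase reporter driven by HSF1 response element in NIH3T3 cells; actives raise luminescence as potentiators of the MG132 stress response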
T1 sequence (P38532 whole entry): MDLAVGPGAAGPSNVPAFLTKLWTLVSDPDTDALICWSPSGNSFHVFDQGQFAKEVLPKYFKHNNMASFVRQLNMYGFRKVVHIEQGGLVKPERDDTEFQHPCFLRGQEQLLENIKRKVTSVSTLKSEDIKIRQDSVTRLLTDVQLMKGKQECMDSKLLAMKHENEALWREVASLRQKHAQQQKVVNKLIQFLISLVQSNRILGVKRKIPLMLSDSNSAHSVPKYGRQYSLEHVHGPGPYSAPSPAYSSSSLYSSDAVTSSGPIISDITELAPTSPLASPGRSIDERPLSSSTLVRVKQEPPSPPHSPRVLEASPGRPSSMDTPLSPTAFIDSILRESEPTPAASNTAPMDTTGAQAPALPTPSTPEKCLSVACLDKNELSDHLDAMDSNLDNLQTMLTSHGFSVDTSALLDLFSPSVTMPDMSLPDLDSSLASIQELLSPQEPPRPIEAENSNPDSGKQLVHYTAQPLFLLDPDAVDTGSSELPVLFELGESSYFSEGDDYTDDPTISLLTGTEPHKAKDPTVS

[5] = viability of HCT116 lacking mutant beta-catenin – cell-based, human colon tumor, dose response (AID 1045); type: functional;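 also: HCT116 colon tumor cells with beta catenin knocked out; cells exposed to compound for 60 hours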
Beta-galactosidase = Beta-galactosidase (Escherichia coli, UniProt Q8VNN2); assay: detection-enzyme interference by beta-gal modulators – biochemical, E. coli enzyme, set 3, artefact control for CCR6 antagonist project, dose response (AID 504712); type: functional
[6] = biological target: T2, Microphthalmia-associated transcription factor (Homo sapiens, UniProt O75030); assay: reducers of TRPM1 reporter luminescence, concentration series – cell-based, SK-MEL-5, cherry-picked, set 3, MITF inhibitor project, dose response (AID 493073); type: functional;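 also: SK-MEL-5 melanoma cells with luciferase driven by the MITF target TRPM1 promoter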
T2 sequence (O75030 whole entry): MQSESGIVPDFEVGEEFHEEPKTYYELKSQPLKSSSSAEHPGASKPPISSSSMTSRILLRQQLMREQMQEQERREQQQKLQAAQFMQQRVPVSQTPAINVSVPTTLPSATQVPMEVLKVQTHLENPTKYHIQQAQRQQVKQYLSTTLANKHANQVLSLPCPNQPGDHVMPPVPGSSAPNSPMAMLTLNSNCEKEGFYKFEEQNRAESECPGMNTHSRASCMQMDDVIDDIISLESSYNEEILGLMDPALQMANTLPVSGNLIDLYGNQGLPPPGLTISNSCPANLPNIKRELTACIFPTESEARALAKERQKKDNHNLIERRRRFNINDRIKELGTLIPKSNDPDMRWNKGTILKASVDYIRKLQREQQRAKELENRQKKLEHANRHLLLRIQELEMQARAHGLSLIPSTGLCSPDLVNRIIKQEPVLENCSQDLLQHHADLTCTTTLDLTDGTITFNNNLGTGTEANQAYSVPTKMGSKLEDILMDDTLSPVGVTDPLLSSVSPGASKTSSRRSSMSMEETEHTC

A-375 = assay: proliferation inhibition in MITF-low A375 cells – cell-based, cherry-pick samples, set 2, counter-screen for MITF modulator project, dose response (AID 540335); type: functional; conditions: Homo sapiens
[7] = P. falciparum Dd2 growth inhibitors, dose response, SYBR Green, cherry-picked samples (AID 1159567); type: functional, cell-based
[8] = toxicity to human hepatoma HepG2 cells – cell-based, cherry-picked samples, cytotoxicity control, dose response (AID 1159577); type: functional
[9] = loss of A549 viability via ATP – cell-based, plate reader, dry powder, set 7, cytotoxicity control, dose response (AID 743318); type: functional
[10] = biological target: Peroxisome proliferator-activated receptor gamma/Nuclear receptor corepressor 2 (Homo sapiens, UniProt P37231+Q9Y618); assay: Counterscreen for NR2E3 inverse agonists: TR-FRET-based biochemical high throughput dose response assay to identify inverse agonists of the interaction between peroxisome proliferator-activated receptor gamma (PPARg) and nuclear receptor co-repressor 2 (NCOR2).; type: functional
[11] = biological target: Photoreceptor-specific nuclear receptor (Homo sapiens, UniProt Q9Y5X4); assay: ligands suppressing NR2E3 nuclear receptor activity – biochemical, TR-FRET, dose response (AID 463256); type: functional
[12] = biological target: Voltage-gated inwardly rectifying potassium channel KCNH2 (Homo sapiens, UniProt Q12809); assay: concentration-dependent hERG rescue from blockers – cell-based, thallium flux, dose response (AID 2121); type: ADME
Voltage-gated inwardly rectifying potassium channel KCNH2, sequence (Q12809 whole entry): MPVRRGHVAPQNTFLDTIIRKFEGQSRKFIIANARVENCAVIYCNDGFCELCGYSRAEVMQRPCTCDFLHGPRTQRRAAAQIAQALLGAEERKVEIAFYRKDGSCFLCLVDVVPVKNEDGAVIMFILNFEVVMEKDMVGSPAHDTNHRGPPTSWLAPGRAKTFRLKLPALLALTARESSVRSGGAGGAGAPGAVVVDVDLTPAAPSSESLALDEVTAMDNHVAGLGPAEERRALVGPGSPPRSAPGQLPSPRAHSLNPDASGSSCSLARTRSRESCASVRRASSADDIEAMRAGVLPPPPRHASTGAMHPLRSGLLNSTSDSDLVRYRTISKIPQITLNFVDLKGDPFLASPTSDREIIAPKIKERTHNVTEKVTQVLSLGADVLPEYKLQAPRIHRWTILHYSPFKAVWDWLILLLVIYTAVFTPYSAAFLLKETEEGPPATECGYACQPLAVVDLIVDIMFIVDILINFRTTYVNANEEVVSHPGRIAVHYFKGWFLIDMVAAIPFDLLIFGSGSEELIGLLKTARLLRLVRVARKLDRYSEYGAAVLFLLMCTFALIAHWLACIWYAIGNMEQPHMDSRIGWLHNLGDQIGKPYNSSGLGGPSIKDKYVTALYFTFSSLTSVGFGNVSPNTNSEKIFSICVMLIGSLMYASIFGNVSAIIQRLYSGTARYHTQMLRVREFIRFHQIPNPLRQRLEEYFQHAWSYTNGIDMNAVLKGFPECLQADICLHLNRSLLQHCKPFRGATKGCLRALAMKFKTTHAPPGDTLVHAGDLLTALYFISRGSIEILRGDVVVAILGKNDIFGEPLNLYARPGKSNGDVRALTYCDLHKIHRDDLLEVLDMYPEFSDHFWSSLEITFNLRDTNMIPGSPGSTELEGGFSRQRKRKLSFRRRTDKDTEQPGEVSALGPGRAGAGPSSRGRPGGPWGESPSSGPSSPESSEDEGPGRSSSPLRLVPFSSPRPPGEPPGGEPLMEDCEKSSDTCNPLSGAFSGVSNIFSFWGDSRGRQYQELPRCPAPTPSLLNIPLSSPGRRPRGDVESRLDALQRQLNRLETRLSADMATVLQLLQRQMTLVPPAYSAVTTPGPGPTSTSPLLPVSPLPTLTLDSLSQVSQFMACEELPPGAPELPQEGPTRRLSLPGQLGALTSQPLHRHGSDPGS

Serine/threonine-protein phosphatase, sequence (Q9BPW0 whole entry): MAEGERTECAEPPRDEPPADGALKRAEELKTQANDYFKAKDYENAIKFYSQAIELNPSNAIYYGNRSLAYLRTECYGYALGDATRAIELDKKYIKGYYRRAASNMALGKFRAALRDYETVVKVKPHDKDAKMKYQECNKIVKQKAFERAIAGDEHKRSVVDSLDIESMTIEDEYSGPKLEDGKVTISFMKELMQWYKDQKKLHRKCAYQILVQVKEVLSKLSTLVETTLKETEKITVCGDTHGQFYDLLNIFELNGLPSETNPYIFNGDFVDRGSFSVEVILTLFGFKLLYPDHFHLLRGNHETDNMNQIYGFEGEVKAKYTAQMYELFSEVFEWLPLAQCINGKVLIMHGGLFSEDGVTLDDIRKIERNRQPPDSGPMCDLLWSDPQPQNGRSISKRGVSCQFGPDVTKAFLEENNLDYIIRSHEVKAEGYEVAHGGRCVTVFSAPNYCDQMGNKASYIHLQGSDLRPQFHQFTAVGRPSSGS
Beta-galactosidase, sequence (Q8VNN2 whole entry): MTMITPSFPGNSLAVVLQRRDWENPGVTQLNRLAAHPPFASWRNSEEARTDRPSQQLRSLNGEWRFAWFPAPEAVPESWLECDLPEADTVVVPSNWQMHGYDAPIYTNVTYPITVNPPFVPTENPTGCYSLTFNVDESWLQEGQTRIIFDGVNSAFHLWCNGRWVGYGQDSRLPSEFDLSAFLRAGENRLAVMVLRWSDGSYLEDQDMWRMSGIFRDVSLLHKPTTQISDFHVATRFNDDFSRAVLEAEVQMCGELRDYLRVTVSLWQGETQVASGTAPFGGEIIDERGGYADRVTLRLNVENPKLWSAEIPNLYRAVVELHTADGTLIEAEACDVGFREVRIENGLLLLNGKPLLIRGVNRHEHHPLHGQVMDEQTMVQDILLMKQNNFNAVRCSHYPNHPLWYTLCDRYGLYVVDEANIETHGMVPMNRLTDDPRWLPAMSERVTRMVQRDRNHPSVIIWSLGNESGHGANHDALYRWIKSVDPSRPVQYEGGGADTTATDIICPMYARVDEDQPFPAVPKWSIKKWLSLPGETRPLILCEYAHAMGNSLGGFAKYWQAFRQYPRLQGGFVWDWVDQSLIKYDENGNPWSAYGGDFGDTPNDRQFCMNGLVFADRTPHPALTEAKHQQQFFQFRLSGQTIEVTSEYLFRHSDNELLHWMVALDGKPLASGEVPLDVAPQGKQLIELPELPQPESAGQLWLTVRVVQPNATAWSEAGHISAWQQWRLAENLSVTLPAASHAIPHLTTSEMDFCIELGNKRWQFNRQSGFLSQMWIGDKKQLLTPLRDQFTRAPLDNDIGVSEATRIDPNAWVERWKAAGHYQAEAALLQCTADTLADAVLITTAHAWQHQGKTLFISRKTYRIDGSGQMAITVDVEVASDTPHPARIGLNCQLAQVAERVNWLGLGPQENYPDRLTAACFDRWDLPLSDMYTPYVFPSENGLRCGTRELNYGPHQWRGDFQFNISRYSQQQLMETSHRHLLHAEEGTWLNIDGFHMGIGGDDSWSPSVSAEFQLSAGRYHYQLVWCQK
Serine/threonine-protein phosphatase PP1-alpha catalytic subunit, sequence (P62136 whole entry): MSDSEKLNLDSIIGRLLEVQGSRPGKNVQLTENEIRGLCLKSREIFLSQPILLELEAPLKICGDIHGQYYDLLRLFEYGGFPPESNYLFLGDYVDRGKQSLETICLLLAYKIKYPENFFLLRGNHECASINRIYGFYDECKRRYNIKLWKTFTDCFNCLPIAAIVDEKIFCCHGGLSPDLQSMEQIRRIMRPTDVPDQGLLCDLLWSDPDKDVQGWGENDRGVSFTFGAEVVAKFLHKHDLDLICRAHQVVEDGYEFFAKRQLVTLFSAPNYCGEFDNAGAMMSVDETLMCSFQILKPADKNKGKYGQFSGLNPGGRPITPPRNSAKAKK
Photoreceptor-specific nuclear receptor, sequence (Q9Y5X4 whole entry): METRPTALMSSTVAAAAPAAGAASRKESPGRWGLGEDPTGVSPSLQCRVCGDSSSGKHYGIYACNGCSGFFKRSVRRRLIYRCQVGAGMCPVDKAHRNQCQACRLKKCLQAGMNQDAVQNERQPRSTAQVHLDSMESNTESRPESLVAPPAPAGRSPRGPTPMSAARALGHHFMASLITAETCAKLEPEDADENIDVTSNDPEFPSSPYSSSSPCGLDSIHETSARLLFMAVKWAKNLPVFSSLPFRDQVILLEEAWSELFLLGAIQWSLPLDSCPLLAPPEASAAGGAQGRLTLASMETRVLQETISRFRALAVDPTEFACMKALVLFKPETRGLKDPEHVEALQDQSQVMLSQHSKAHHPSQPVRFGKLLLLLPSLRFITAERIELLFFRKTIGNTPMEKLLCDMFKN
NADPH oxidase 1, sequence (Q9Y5S8 whole entry): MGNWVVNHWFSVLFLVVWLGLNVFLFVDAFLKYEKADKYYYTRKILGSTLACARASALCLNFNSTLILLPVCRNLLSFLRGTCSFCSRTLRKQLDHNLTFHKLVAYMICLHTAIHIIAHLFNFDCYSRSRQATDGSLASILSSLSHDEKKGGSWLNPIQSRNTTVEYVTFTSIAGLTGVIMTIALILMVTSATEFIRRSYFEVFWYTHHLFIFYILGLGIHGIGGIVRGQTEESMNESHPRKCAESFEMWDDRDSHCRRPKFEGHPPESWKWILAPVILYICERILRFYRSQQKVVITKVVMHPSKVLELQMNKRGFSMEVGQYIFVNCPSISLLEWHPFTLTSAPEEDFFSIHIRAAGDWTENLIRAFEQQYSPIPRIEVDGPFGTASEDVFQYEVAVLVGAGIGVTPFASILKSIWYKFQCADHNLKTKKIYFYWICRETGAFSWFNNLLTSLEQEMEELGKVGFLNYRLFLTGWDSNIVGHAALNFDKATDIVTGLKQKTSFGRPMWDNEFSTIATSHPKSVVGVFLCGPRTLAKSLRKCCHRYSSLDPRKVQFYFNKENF

O=C1Nc2ccc(F)cc2/C1=C1/Nc2ccccc2/C1=N\OCCN1CCNCC1
IC50 (Danio rerio): 13.1 µM (not active)

CC(=NNc1ccc(C(=O)O)cc1)c1ccc2c(c1)Nc1ccccc1S2
IC50 (NADPH oxidase 1): 561 nM (active)

O=C1C(Cl)=C(N2CCN(c3ccccc3[N+](=O)[O-])CC2)C(=O)c2ccccc21
IC50 [1]: 29.5 µM (not active)
IC50 [2]: > 67 µM (not active)
EC50 [3]: 5.82 µM (active)
EC50 [4]: 734 nM (inconclusive)
EC50 [5]: 4.51 µM (active)
IC50 (Beta-galactosidase): > 66.6 µM (inactive)
AC50 [6]: 3.59 µM (active)
AC50 (A-375): 15.6 µM (active)

O=C(Nc1ccc2c(c1)OCO2)N1C[C@@H]2N[C@H](C1)[C@@H]2c1ccc(C=Cc2ccccc2)cc1
AC50 [7]: 5.46 µM (active)
AC50 [8]: 11.2 µM (active)

Cc1cccc(OCCn2c(=S)[nH]c3cc(C(F)(F)F)ccc32)c1
AC50 [9]: 36 µM (active)

O=C(NCc1ccccn1)c1cccn1-c1ncc(C(F)(F)F)cc1Cl
IC50 [10]: 9.96 µM (active)
IC50 [11]: 9.98 µM (active)

O=C(NC(=S)NCCc1ccccc1)c1cccc(Cl)c1
EC50 [12]: 3.5 µM (active)
